Assay results reported in US20240358818A1, “ANTIBODY-INDUCING POLYPEPTIDE AND VACCINE” (priority 2021, published 2024).

Key:
[1] = biological target: T478K mutant RBD epitope antigen (Severe acute respiratory syndrome coronavirus 2, UniProt P0DTC2, T478K)
[2] = biological target: L452R mutant RBD epitope antigen (Severe acute respiratory syndrome coronavirus 2, UniProt P0DTC2, L452R)

Sequence | reactivity of mouse serum to the mutant RBD [1] | reactivity to the mutant RBD compared with reactivity to the wild-type RBD [1] | reactivity to a homologous epitope of the mutant RBD compared with the wild-type RBD [2]
SNLKPFERDISTEIYQAGSTPC [#11] | sufficiently high reactivity | a little lower | –
GGNYNYLYRLFRKSNLKPFERD [#10] | – | – | substantially equivalent
